The record followed here is ChEMBL document CHEMBL4118085, “Plasma Kallikrein Inhibitors for the Treatment of Retinal Vascular Permeability Associated with Diabetic Retinopathy and Diabetic Macular Edema” (ACS Med Chem Lett, 2017).

Structures are written as SMILES.

The assay has as its target Plasma kallikrein (Homo sapiens, UniProt P03952). In words: Inhibition of human plasma kallikrein using H-Pro-Phe-Arg-AMC as substrate after 1 hr by fluorescence assay.

Chain of Plasma kallikrein (P03952 20-390 limits assumed): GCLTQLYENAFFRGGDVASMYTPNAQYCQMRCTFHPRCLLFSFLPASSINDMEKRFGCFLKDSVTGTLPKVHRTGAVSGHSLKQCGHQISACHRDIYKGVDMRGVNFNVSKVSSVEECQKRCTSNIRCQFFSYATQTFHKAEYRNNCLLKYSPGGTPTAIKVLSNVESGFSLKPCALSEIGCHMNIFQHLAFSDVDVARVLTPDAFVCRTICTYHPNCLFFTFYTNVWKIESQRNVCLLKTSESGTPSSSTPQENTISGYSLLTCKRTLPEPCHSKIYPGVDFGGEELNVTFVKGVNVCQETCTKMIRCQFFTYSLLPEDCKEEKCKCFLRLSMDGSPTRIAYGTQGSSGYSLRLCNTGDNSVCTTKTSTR
Chain of Plasma kallikrein (P03952 391-638 limits assumed): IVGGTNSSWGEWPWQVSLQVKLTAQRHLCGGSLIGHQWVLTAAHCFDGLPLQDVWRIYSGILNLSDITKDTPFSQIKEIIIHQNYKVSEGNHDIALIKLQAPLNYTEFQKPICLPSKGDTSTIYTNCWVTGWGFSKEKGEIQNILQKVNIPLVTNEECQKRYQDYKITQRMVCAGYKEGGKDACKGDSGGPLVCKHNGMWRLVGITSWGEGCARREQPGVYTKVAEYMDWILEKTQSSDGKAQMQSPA

For the molecule `C[C@H]1CCN(c2ccc(Cn3cc(C(=O)N[C@@H]4CCc5nc(N)ccc54)cn3)cn2)C1`, the IC50 turned out to be 19 nM.
On to `Cc1cc(N)nc2c1C(NC(=O)c1cnn(Cc3ccc(Cn4ccccc4=O)cc3)c1)CC2` (stereo not given), for which the half-inhibitory concentration (IC50) came to 4 nM.
The value for `Cc1cnn(Cc2ccc(Cn3nc(C(=O)N[C@@H]4CCc5c4ccnc5N)cc3C(F)(F)F)cc2)c1` was 1 nM; that for `Cc1ccc2cc(Cn3cc(C(=O)N[C@H]4CCc5nc(N)ccc54)nn3)ccc2n1` was 1900 nM.
For `Nc1ccc2c(n1)CCC2NC(=O)c1cnn(Cc2ccc(Cn3ccccc3=O)cc2)c1` (stereo not given), the IC50 worked out at 9 nM.
